In ChEMBL document CHEMBL4177767, “Discovery of N2-(4-Amino-cyclohexyl)-9-cyclopentyl- N6-(4-morpholin-4-ylmethyl-phenyl)- 9H-purine-2,6-diamine as a Potent FLT3 Kinase Inhibitor for Acute Myeloid Leukemia with FLT3 Mutations” (J Med Chem, 2018):

Key:
U-937 = assay: cells; details: Homo sapiens, U-937, 72 h
in vitro [1] = details: human, HUVEC
THP-1 = assay: cells; details: Homo sapiens, THP-1, 72 h
MV4-11 = assay: Growth inhibition of human MV4-11 cells after 72 hrs by calcein AM dye-based fluorescence assay; type: functional; details: MV4-11, 72 h
Kasumi 1 = assay: cells; details: Homo sapiens, Kasumi 1, 72 h
in vitro [2] = details: human, MRC5 cells
HCC827 = assay: cells; details: Homo sapiens, HCC827, 72 h
MOLM-13 = assay: cells; details: Homo sapiens, MOLM-13, 72 h
[3] = biological target: Receptor-type tyrosine-protein kinase FLT3 (Homo sapiens, UniProt P36888, ITD); assay: biochemical; type: cell-based, Sf9
Description: Inhibition of N-terminal GST/His6-fused recombinant human FLT3 (R571 to S993 residues) ITD mutant expressed in Sf9 insect cells using poly (Ala,Glu,Lys,Tyr) 6:2:5:1 hydrobromide as substrate in presence of [gamma-33P]ATP

in vitro [4] = details: human, BJ cells
K562 = assay: cells; details: Homo sapiens, K562, 72 h
MCF7 = assay: cells; details: Homo sapiens, MCF7, 72 h
[5] = biological target: Receptor-type tyrosine-protein kinase FLT3 (Homo sapiens, UniProt P36888, D835Y); assay: biochemical; type: cell-based, Sf9
Description: Inhibition of N-terminal GST/His6-fused recombinant human FLT3 (R571 to S993 residues) D835Y mutant expressed in Sf9 insect cells using poly (Ala,Glu,Lys,Tyr) 6:2:5:1 hydrobromide as substrate in presence of [gamma-33P]ATP

[6] = biological target: T1, Receptor-type tyrosine-protein kinase FLT3 (Homo sapiens, UniProt P36888); assay: biochemical; type: cell-based, Sf9
T1 sequence (P36888 whole entry): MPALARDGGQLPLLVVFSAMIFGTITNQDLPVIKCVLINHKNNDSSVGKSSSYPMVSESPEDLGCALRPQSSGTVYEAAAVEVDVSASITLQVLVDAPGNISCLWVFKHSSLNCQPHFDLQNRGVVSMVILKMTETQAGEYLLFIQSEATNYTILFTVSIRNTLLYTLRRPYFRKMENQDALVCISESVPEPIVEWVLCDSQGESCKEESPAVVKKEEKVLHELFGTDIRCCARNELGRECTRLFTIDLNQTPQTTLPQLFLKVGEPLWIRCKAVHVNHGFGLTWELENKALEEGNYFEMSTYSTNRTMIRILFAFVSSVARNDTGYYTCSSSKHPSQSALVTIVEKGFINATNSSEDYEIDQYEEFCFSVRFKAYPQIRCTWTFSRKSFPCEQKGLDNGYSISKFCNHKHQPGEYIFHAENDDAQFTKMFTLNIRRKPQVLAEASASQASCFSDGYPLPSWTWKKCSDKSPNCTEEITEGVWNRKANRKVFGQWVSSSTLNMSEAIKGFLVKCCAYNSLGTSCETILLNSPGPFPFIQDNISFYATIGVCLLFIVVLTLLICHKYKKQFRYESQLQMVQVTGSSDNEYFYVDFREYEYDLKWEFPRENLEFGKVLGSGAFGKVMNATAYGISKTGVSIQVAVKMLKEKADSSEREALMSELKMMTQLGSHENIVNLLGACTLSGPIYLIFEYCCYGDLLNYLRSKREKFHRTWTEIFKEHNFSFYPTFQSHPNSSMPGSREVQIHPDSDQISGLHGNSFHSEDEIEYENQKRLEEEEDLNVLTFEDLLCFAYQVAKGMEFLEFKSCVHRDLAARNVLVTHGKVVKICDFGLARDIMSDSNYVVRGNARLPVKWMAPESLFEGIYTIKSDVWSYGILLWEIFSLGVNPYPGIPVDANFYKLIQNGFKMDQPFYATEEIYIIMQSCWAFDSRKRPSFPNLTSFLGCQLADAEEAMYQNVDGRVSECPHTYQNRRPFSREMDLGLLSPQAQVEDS
Description: Inhibition of N-terminal GST/His6-fused recombinant wild type human FLT3 (R571 to S993 residues) expressed in Sf9 insect cells using poly (Ala,Glu,Lys,Tyr) 6:2:5:1 hydrobromide as substrate in presence of [gamma-33P]ATP

GI50 (U-937)	GI50 at 72 h (in vitro [1])	GI50 (THP-1)	GI50 (MV4-11)	GI50 at 72 h (in vitro [2])	GI50 (HCC827)	GI50 (MOLM-13)	IC50 [3]	GI50 at 72 h (in vitro [4])	GI50 (K562)	GI50 (MCF7)	IC50 [5]	IC50 [6]	Structure (SMILES)	GI50 (Kasumi 1)
4070 nM	8060 nM	6910 nM	11 nM	7560 nM	1410 nM	17 nM	4 nM	13000 nM	3490 nM	3260 nM	7 nM		NCCCCNc1nc(Nc2ccc(N3CCOCC3)cc2)c2ncn(C3CCCC3)c2n1	2020 nM
1340 nM	6260 nM	3740 nM	11 nM	3880 nM	1660 nM	19 nM	1 nM	10400 nM	2100 nM	2100 nM	5 nM		NCCCCNc1nc(Nc2ccc(CN3CCOCC3)cc2)c2ncn(C3CCCC3)c2n1	2240 nM
1570 nM	4530 nM	1160 nM	2 nM	23300 nM	521 nM	4 nM	2 nM	12200 nM	965 nM	320 nM	7 nM	21 nM	N[C@H]1CC[C@H](Nc2nc(Nc3ccc(N4CCOCC4)cc3)c3ncn(C4CCCC4)c3n2)CC1	816 nM
1800 nM	10100 nM	2280 nM	10 nM	20600 nM	1280 nM	15 nM	4 nM	14700 nM	670 nM	520 nM	4 nM	16 nM	N[C@H]1CC[C@H](Nc2nc(Nc3ccc(Br)cc3)c3ncn(C4CCCC4)c3n2)CC1	481 nM
3170 nM	12100 nM	3110 nM	18 nM	14000 nM	1070 nM	24 nM	3 nM	15900 nM	940 nM	487 nM	11 nM	21 nM	N[C@H]1CC[C@H](Nc2nc(Nc3ccc(N4CCCC4)cc3)c3ncn(C4CCCC4)c3n2)CC1	569 nM
9790 nM	10100 nM	> 10000 nM	196 nM	23900 nM	> 5000 nM	122 nM	26 nM	> 25000 nM	3600 nM	8600 nM	624 nM	83 nM	c1ccc(CNc2nc(Nc3ccc(CN4CCOCC4)cc3)c3ncn(C4CCCC4)c3n2)cc1	4760 nM
605 nM	4440 nM	514 nM	1 nM	22000 nM	592 nM	4 nM	3 nM	12900 nM	2070 nM	1050 nM	2 nM	10 nM	CCN1CCN(c2ccc(Nc3nc(N[C@H]4CC[C@H](N)CC4)nc4c3ncn4C3CCCC3)cc2)CC1	839 nM
3630 nM	14200 nM	2420 nM	35 nM	5880 nM	1120 nM	20 nM	5 nM	11200 nM	1530 nM	2120 nM	65 nM		NCCCCCNc1nc(Nc2ccc(CN3CCOCC3)cc2)c2ncn(C3CCCC3)c2n1	1280 nM
638 nM	5950 nM	693 nM	3 nM	9800 nM	456 nM	4 nM	4 nM	14600 nM	1220 nM	1060 nM	28 nM	13 nM	N[C@H]1CC[C@H](Nc2nc(Nc3ccc(N4CC5(COC5)C4)cc3)c3ncn(C4CCCC4)c3n2)CC1	734 nM
3420 nM	11400 nM	4360 nM	12 nM	10300 nM	976 nM	4 nM	1 nM	15400 nM	1340 nM	2150 nM	3 nM		CCN1CCN(c2ccc(Nc3nc(NCCCCN)nc4c3ncn4C3CCCC3)cc2)CC1	2070 nM
2920 nM	10300 nM	3590 nM	86 nM	4090 nM	2250 nM	54 nM	10 nM	7260 nM	3790 nM	5000 nM	69 nM		NCCCCCCNc1nc(Nc2ccc(CN3CCOCC3)cc2)c2ncn(C3CCCC3)c2n1	1020 nM
